Results taken from publication PMC7395068, “The evolution of strategies to minimise the risk of human drug-induced liver injury (DILI) in drug discovery and development” (Archives of Toxicology, 2020).
Where two headings read alike, the source gives them in different places.

Tests used:
[1] = system: HepG2 cells; settings: cited from earlier work
[2] = cited from earlier work
[3] = system: hLiMTs; experiment: Combined HCI (HCS) and cellular ATP 3D assay in hLiMTs; settings: for AC50 / minimal effective concentration: Homo sapiens
[4] = system: PHH; settings: cited from earlier work
[5] = cited from earlier work; remark: listed apart in the source
[6] = system: rBsep; settings: In vitro Assay; ref Dawson 2012; cited from earlier work
[7] = Plasma free fraction (fu) and unbound Cmax (Cmax,u); format: in vitro ADME, human; settings: unbound plasma Cmax
[8] = ref Chen 2011; cited from earlier work
[9] = system: HepG2 C3A spheroid, BSEP, Glu/Gal in HepG2 cells, bioactivation; settings: cited from earlier work
[10] = system: primary human hepatocytes, NIH3T3 fibroblasts, BSEP, CYP3A4; settings: cited from earlier work
[11] = system: THLE-Null and THLE-3A4 cells; settings: In vitro Assay; ref Gustafsson 2014; cited from earlier work
[12] = system: THLE or HepG2 cells, isolated mitochondria, BSEP; settings: cited from earlier work
[13] = system: HepG2 cells, primary human hepatocytes; settings: In vitro Assay; ref Garside 2014; cited from earlier work
[14] = system: HepaRG spheroids; experiment: Combined HCI (HCS) and cellular ATP 3D assay in HepaRG spheroids; settings: for AC50 / minimal effective concentration: Homo sapiens
[15] = plasma free fraction; cited from earlier work
[16] = system: PHH spheroids; settings: cited from earlier work
[17] = system: human hepatocytes; settings: cited from earlier work
[18] = read-out: Human plasma Cmax; total plasma Cmax.tot, median of 9 literature references; cited from earlier work
[19] = system: hLiMTs; settings: cited from earlier work
[20] = In vitro Assay, ref Persson 2013
[21] = Microtissue model structural based (HCI), combined HCS and ATP, MEC < 25 × Cmax.tot cut-off
[22] = In vitro Assay, ref Proctor 2017
[23] = In vitro Assay, ref Schadt 2015
[24] = Modeled in vitro assays (cytotoxicity, mitochondrial dysfunction, BSEP), ref Aleo et al. 2019

hLiMTs <25x Avg Cmax ATP ([3]; hLiMTs, ATP endpoint, cut-off <25x Avg Cmax): +ve
hLiMTs <100x Avg Cmaxu ATP ([3]; hLiMTs, ATP endpoint, cut-off <100x Avg Cmaxu): -ve
hLiMTs <25x Avg Cmax HCS ([3]; hLiMTs, HCS endpoints, cut-off <25x Avg Cmax): +ve
hLiMTs <100x Avg Cmaxu HCS ([3]; hLiMTs, HCS endpoints, cut-off <100x Avg Cmaxu): -ve
hLiMTs <25x Avg Cmax All ([3]; hLiMTs, all endpoints (ATP and HCS), cut-off <25x Avg Cmax): +ve
hLiMTs Cmax max All ([3]; hLiMTs, all endpoints, Cmax max used): +ve
hLiMTs Cmax min All ([3]; hLiMTs, all endpoints, Cmax min used): +ve
hLiMTs <10 uM All ([3]; hLiMTs, all endpoints, cut-off <10 uM): +ve (<10 uM)
hLiMTs <100x Avg Cmaxu All ([3]; hLiMTs, all endpoints, cut-off <100x Avg Cmaxu): -ve
Human plasma Cmax,u [7]: 0.043 µM
HepaRG <25x Avg Cmax ATP ([14]; HepaRG, ATP endpoint, cut-off <25x Avg Cmax): +ve
HepaRG <100x Avg Cmaxu ATP ([14]; HepaRG, ATP endpoint, cut-off <100x Avg Cmaxu): -ve
HepaRG <25x Avg Cmax HCS ([14]; HepaRG, HCS endpoints, cut-off <25x Avg Cmax): +ve
HepaRG <100x Avg Cmaxu HCS ([14]; HepaRG, HCS endpoints, cut-off <100x Avg Cmaxu): -ve
HepaRG <25x Avg Cmax All ([14]; HepaRG, all endpoints (ATP and HCS), cut-off <25x Avg Cmax): +ve
HepaRG Cmax max All ([14]; HepaRG, all endpoints, Cmax max used): +ve
HepaRG Cmax min All ([14]; HepaRG, all endpoints, Cmax min used): +ve
HepaRG <10 uM All ([14]; HepaRG, all endpoints, cut-off <10 uM): +ve (<10 uM)
HepaRG <100x Avg Cmaxu All ([14]; HepaRG, all endpoints, cut-off <100x Avg Cmaxu): -ve
SMILES: CCc1nn(CCCN2CCN(c3cccc(Cl)c3)CC2)c(=O)n1CCOc1ccccc1 [nefazodone, reference compound]
Cluser analysis [1, 20]: +VE
Structural based (HCI) [1, 20]: +VE
DILI in vitro assay prediction, Persson (2013) ([1]; Structural based (HCI), HepG2, ref Persson et al. 2013): +VE
Assigned DILI category ([2]; Chen et al. 2016 or literature alignment, ref Chen et al. 2016): 3
In vivo DILI ([2]; […]): +VE
In vivo DILI ([2]; ref Aleo 2019): +VE
In vivo DILI ([2]; ref Dawson 2012): +VE
In vivo DILI ([2]; ref Garside 2014): +VE
In vivo DILI ([2]; ref Gustafsson 2014): +VE
In vivo DILI ([2]; ref Persson 2013): +VE
In vivo DILI ([2]; ref Proctor 2017): +VE
In vivo DILI ([2]; ref Schadt 2015): +VE
In vivo DILI ([2]; ref Vorrink 2018): +VE
In vivo DILI ([2]; ref Williams 2019): +VE
In vivo DILI ([2]; ref Xu 2008): +VE
AC50 ([3]; read-out: ATP endpoint AC50): 12.1 µM
minimal effective concentration ([3]; read-out: ATP endpoint MEC): 8.98 µM
AC50 ([3]; read-out: HCS endpoint AC50): 23.4 µM
minimal effective concentration ([3]; read-out: HCS endpoint MEC): 13.8 µM
DILI prediction hLiMTs (HCS-MEC) [3, 21]: +VE (MEC < 25 × Cmax.tot cut-off)
PHH/100xCmax, Proctor (2017) ([4]; 2D PHH, ATP, IC50 < 100 × Cmax.tot, ref Proctor et al. 2017): +VE (IC50 < 100 × Cmax.tot)
PHH/100uM, Proctor (2017) ([4]; 2D PHH, ATP, IC50 threshold 100 µM, ref Proctor et al. 2017): +VE (IC50 threshold of 100 µM)
PHH ATP <100uM [4, 22]: +VE (IC50 threshold of 100 µM)
DILI severity category (Chen et al. [2016]) ([5]; LTKB DILIrank category, ref Chen et al. 2016): Most
DILI severity category (Chen 2016) ([5]; human DILI classification, LTKB DILIrank, ref Chen et al. 2016): Most
DILI severity category ([5]; human DILI severity, ref Chen et al.): Most
DILI +VE (5-8), DILI -VE (-4) ([5]; ref Chen 2016): +VE
DILI severity category ([5]; ref Chen 2016): vMost-DILI-Concern
Inhibition of rBsep cutoff<1& cmax u>.2 [6]: +VE
Inhibition of rBsep cutoff<3 [6]: +VE
DILI Score (FDA) (1-8) [8]: 8
Bayesian Machine Learning DILI prediction, Williams (2019) ([9]; Bayesian modeling, ref Williams et al. 2019): +VE
Bayesian Machine Learning ([9]; In vitro Assay, ref Williams 2019): +VE
DILI in vitro assay prediction, Schadt (2015) ([10]; BSEP & Metabolism based, ref Schadt et al. 2015): +VE
Cellular toxicity (3T3 cells) [10, 23]: -VE
Combined Assay [10, 23]: +VE
GSH adduct HML [10, 23]: +VE
Hepatocyte cellular toxicity [10, 23]: +VE
MitoTox 3T3 [10, 23]: +VE
TDI CYP3A4 [10, 23]: +VE
hBSEP inhibition [10, 23]: +VE
THLE-Null [11]: +VE
THLE-Null/3A4 [11]: +VE
Partition Hybrid HRM Score ([12]; In vitro Assay, ref Aleo 2019): +VE
Ro2 Hybrid HRM Score ([12]; In vitro Assay, ref Aleo 2019): +VE
Partition Hybrid HRM Score ≥4, Aleo (2019) [12, 24]: +VE (Partition Hybrid HRM Score ≥4)
Partition Hybrid HRM Score ≥8, Aleo (2019) [12, 24]: +VE (Partition Hybrid HRM Score ≥8)
Rule of Two hybrid HRM Score ≥3, Aleo (2019) [12, 24]: +VE (Rule of Two hybrid HRM Score ≥3)
Rule of Two hybrid HRM Score ≥8, Aleo (2019) [12, 24]: +VE (Rule of Two hybrid HRM Score ≥8)
Cluster 1-6 +VE Assay [13]: +VE
AC50 ([14]; HepaRG, read-out: ATP endpoint AC50): 19.4 µM
minimal effective concentration ([14]; HepaRG, read-out: ATP endpoint MEC): 11.6 µM
AC50 ([14]; HepaRG, read-out: HCS endpoint AC50): 23.8 µM
minimal effective concentration ([14]; HepaRG, read-out: HCS endpoint MEC): 5.67 µM
DILI prediction HepaRG spheroids (HCS-MEC) [14, 21]: +VE (MEC < 25 × Cmax.tot cut-off)
fu [15]: 0.010
hLiMTs ATP <20 x Cmax ([16]; In vitro Assay, ref Vorrink 2018): +VE (IC20 < 20 × Cmax.tot cut-off)
DILI in vitro assay prediction, Vorrink (2018) ([16]; PHH spheroids, ATP, 14 days, IC20 < 20 × Cmax.tot, ref Vorrink et al. 2018): +VE (IC20 < 20 × Cmax.tot cut-off)
Structural based (HCI) ([17]; In vitro Assay, ref Xu 2008): +VE
DILI in vitro assay prediction, Xu (2008) ([17]; Structural based (HCI), human hepatocytes, ref Xu et al. 2008): +VE
Cmax [18]: 4.25 µM
hLiMTs ATP <100uM [19, 22]: +VE (IC50 threshold of 100 µM)
hLiMTs/100xCmax, Proctor (2017) ([19]; hLiMTs, ATP, IC50 < 100 × Cmax.tot, ref Proctor et al. 2017): +VE (IC50 < 100 × Cmax.tot)
hLiMTs/100uM, Proctor (2017) ([19]; hLiMTs, ATP, IC50 threshold 100 µM, ref Proctor et al. 2017): +VE (IC50 threshold of 100 µM)
